The nature of data set [1]: radioactive isotope elimination-increasing effect, isotope into abdominal cavity, whole-body retention. Format: in vivo, Swiss mice. Particulars: for EI value: effectivity (isotope elimination as % related to control) multiplied by LD50/30, 0-5 weak, 5-50 medium, 50-100 good, above 100 excellent; for F factor: multiplication of isotope elimination relative to untreated animals, i.v. 50 to 100 μmol/kg, 30 to 60 minutes after isotope; for radioactivity excreted from the animal organism within 1 day / radioactivity excreted from the animal organism within 4 days / radioactivity excreted from the animal organism within 7 days: Sr-85 into abdominal cavity, single treatment, 100 μmol/kg (stated for Example 13); for radioactivity excreted from the animal organism within 1 day: control 15%; for radioactivity excreted from the animal organism within 4 days: control 25%; for radioactivity excreted from the animal organism within 7 days: control 30%. The source says:
The action of the compounds of formula (I) according to the invention, which manifests itself as an increase in the elimination of metal ions damaging the living organism, was investigated by using radioactive strontium or cerium ions on Swiss mice and Wistar rats of both sexes.
The elimination was studied on radioactive isotopes introduced in various routes to various sites, e.g. to the blood circulation, abdominal cavity, lungs, muscles or subcutaneous connective tissue of the experimental animals. The compound increasing the elimination of the isotopes was administered daily once or two times in the form of an injection, powder or liquid aerosol or plaster to the organism of the experimental animals. Thereafter, whole body activity measurements were performed and retention curves were taken up which then were compared to the results obtained in the control group.
The retention curves obtained were analysed on a computer. "Nonlinear Regression by the Code of BMDP-3R" (BMDP Statistical Software Manual, UCLA, Los Angeles, 1990, Chief Ed. W. J. Dixon) computer software was used for this purpose. It could be stated from the results obtained that the curves could be described by a two-component descending exponential function. Two data were calculated for characterizing the effectivity. One of these was the so-called F factor indicating the increase in the elimination in relation to the control and meaning the multiplication of the isotope elimination under effect of the test compound in relation to the untreated animals/see column (C) in Table 1/.
For the illustrative comparison of the compounds according to the invention additional characteristic data, the so-called EI values are given which were obtained by multiplying the extent of isotope elimination as percentage related to the control group (effectivity, E) with the acute toxicity value (LD50/30, innocuous, I)/see column (D) in Table 1/. Although the EI value is numerically not identical to the therapeutic ratio (safety index), it indicates in all cases to a weak or excellent activity of a product.
The radioactive isotope elimination-increasing effects of compounds prepared according to Examples 1 to 16 were compared on Swiss mice as described hereinafter.
An activity of 37 to 74 kBg (1 to 2 μCi) of radioactive strontium (Sr-85Cl2) or radioactive cerium (Ce-144Cl3), respectively, was administered into the abdominal cavity of the animals which were then divided into treatment groups consisting of 5 to 10 animals each. At 30 to 60 minutes after administration of the isotope, the animals of the treated groups were intravenously (i.v.) given the active agent used in an amount to achieve s concentration of 50 to 100 μmol/kg of body-weight in the animal organism for each treatment. The animals of the control groups were similarly treated with the carrier (sterile physiological saline or glucose solution of 5% by weight concentration) without active agent.
The amount of radioactivity introduced to the animal organism was determined immediately after administration of the isotope, thru these measurements were repeated daily or in every two the or three days in a device constructed for the purpose of the whole-body measurements on small animals. The counts observed were related to the starting activity value of the zero (0) day and a so-called retention/time correlation was obtained by considering the activity retained in the organism. The change of activity of the animal organism in the time is illustrated in FIG. 1 where the time (in days) elapsed after the treatment is shown on the abscissa and the whole-body retention as percentage is plotted on the ordinate. It can be seen that the rate of elimination of Sr-85 administered into the abdominal cavity of control animals was slow: within 1 day only 15%, within 4 days 25% and within 7 days 30% of the activity were eliminated from their organism and the elimination was even more delayed in the later period. […]

The test system of data set [2] is laboratory mice and rats. As to the kind of experiment: acute toxicity, LD50/30, injection into blood circulation, 30 days observation. Format: in vivo, Swiss mice and Wistar rats. Particulars: dose causing death of 50% of animals within 30 days, slow injection into the blood circulation during 3 to 5 minutes, mice and rats, probit analysis. As to the method: (§1) The acute toxicity values of the products prepared according to Examples 1 to 16 were determined on laboratory mice and rats in the following manner.
(§2) Solutions containing the compounds in various concentrations were prepared by using physiological saline solution or glucose solution of 5% by weight concentration and the active agents were administered in various concentrations into the blood circulation of the animals by injecting them slowly during 3 to 5 minutes. Groups consisting of 6 to 10 animals (Swiss mice and Wistar rats of both sexes) each were used for the various dose levels. […] The LD50/30 value (i.e. the dose causing the death of 50% of the experimental animals within 30 days) was determined from the number of animals died during this period by using probit analysis/D. J. Finney: Probit Analysis (2nd ed.) Cambridge University Press (1952)/. These values expressed in mmol/kg of body-weight for the active agents according to the invention are summarized in column (B) of Table 1.

Assay in data set [3]: as above
Format: in vivo, Swiss mice and Wistar rats. The following applies: in vivo, iv; dose causing death of 50% of animals within 30 days; slow injection into the blood circulation during 3 to 5 minutes; mice and rats; probit analysis. As to the method: as §1, §2

Counter-ions that a name gives are not always drawn.

As for `O=C([O-])C(C(=O)[O-])N1CCOCCOCCN(C(C(=O)[O-])C(=O)[O-])CCOCCOCC1.[Ca+2].[Ca+2]` [Example 8, N,N'-bis(dicarboxymethyl)-1,4,10,13-tetraoxa-7,16-diazacyclooctadecane calcium complex calcium salt], in data set [1], the EI value amounted to 58.00 and the F factor is on record as 1.6. Further, the “Acute toxicity LD50/30” value in data set [2] is given as “above 1.5 mmol/kg”.
Take `O=C([O-])C(C(=O)[O-])N1CCOCCOCCN(C(C(=O)[O-])C(=O)[O-])CCOCCOCC1.[Na+].[Na+].[Na+].[Na+]` [1/a, N,N'-bis(dicarboxymethyl)-1,4,10,13-tetraoxa-7,16-diazacyclooctadecane tetrasodium salt]: in data set [1], the EI value was determined as 5.40 and the F factor is listed as 1.8. Also, in data set [3], the LD50 – broadly, the dose at which mortality reaches 50% – at 720 h was 327 µmol/kg.
Regarding `O=C([O-])C(C(=O)[O-])N1CCOCCOCCN(C(C(=O)[O-])C(=O)[O-])CCOCCOCC1.[K+].[K+].[K+].[K+]` [3/b, N,N'-bis(dicarboxymethyl)-1,4,10,13-tetraoxa-7,16-diazacyclooctadecane tetrapotassium salt], in data set [1], the EI value came to 8.90 and the F factor amounted to 1.7. For the same compound, the “Acute toxicity LD50/30” value in data set [2] (43200 min) is recorded as 0.272 mmol/kg.
As for `O=C([O-])C(C(=O)[O-])N1CCOCCOCCN(C(C(=O)[O-])C(=O)[O-])CCOCCOCC1.[Na+].[Na+].[Zn+2]` [Example 10, N,N'-bis(dicarboxymethyl)-1,4,10,13-tetraoxa-7,16-diazacyclooctadecane zinc complex disodium salt], in data set [1], the EI value is 3.20 and the F factor is on record as 2.3. Also, the “Acute toxicity LD50/30” value in data set [2] stood at 0.091 mmol/kg.
As for “N,N'-bis(dicarboxymethyl)-1,4,10,13-tetraoxa-7,16-diazacyclooctadecane iron(II) complex disodium salt [Example 9]”, in data set [1], the EI value turned out to be 8.25 and the F factor is 1.7. In data set [2], the “Acute toxicity LD50/30” value is recorded as 0.250 mmol/kg.
For the compound `CC(C(=O)O)(C(=O)O)N1CCOCCOCCN(C(C)(C(=O)O)C(=O)O)CCOCCOCC1` [Example 15, N,N'-bis(1,1'-dicarboxyethyl)-1,4,10,13-tetraoxa-7,16-diazacyclooctadecanetetrasodium salt], in data set [1], the EI value amounted to 6.80 and the F factor was 1.3. The compound further returned an LD50 at 720 h in data set [3] of 450 µmol/kg.
As to `N.N.O=C([O-])C(C(=O)[O-])N1CCOCCOCCN(C(C(=O)O)C(=O)O)CCOCCOCC1.[Ca+2]` [Example 7, N,N'-bis(dicarboxymethyl)-1,4,10,13-tetraoxa-7,16-diazacyclooctadecane calcium complex diammonium], in data set [1], the EI value turned out to be 65.00 and the F factor is 1.7. The “Acute toxicity LD50/30” value in data set [2] is “above 2.5 mmol/kg”.
On to `O=C(O)C(C(=O)O)N1CCOCCOCCN(C(C(=O)O)C(=O)O)CCOCCOCC1` [Example 2, N,N'-bis(dicarboxymethyl)-1,4,10,13-tetraoxa-7,16-diazacyclooctadecane tetrasodium salt containing disodium hydroxy malonate], for which, in data set [1], the EI value is 11.10 and the F factor is listed as 3.3. In data set [3], this compound registered an LD50 at 720 h of 368 µmol/kg.
Taken in the same sequence, the figures for `O=C([O-])C(C(=O)[O-])N1CCOCCOCCN(C(C(=O)[O-])C(=O)O)CCOCCOCC1.[Na+].[Na+].[Na+]` [Example 11, N,N'-bis(dicarboxymethyl)-1,4,10,13-tetraoxa-7,16-diazacyclooctadecane trisodium salt] were 2.90, 2.6 and 111 µmol/kg.
Regarding “N,N'-bis(dicarboxymethyl)-1,4,10,13-tetraoxa-7,16-diazacyclooctadeoane calcium complex disodium salt containing sodium chloride [Example 5]”, in data set [1], the “radioactivity excreted from the animal organism within 1 day” value worked out at 81%, the “radioactivity excreted from the animal organism within 4 days” value is given as 84%, the “radioactivity excreted from the animal organism within 7 days” value is reported as 85% and the EI value amounted to 145.00. Moreover, the F factor in data set [1] stood at 3.7. Moreover, in data set [2], the “Acute toxicity LD50/30” value was “above 2.5 mmol/kg”.
As to `CC(C(=O)[O-])(C(=O)[O-])N1CCOCCOCCN(C(C(=O)[O-])C(=O)[O-])CCOCCOCC1.[Na+].[Na+].[Na+].[Na+]` [Example 12, N-dicarboxymethyl-N'-(1,1'-dicarboxyethyl)-1,4,10,13-tetraoxa-7,16-diazacyclooctadecane tetrasodium salt], in data set [1], the EI value is 7.90 and the F factor worked out at 1.5. Besides, the LD50 at 720 h in data set [3] was determined as 305 µmol/kg.
`O=C([O-])C(C(=O)[O-])N1CCOCCOCCN(C(C(=O)[O-])C(=O)[O-])CCOCCOCC1.[Na+].[Na+].[Na+].[Na+]` [1/b, N,N'-bis(dicarboxymethyl)-1,4,10,13-tetraoxa-7,16-diazacyclooctadecane tetrasodium salt]: in data set [1], the EI value was 9.66 and the F factor worked out at 2.8. The “Acute toxicity LD50/30” value in data set [2] (43200 min) came to 0.379 mmol/kg.
On to `CCC(C(=O)O)(C(=O)O)N1CCOCCOCCN(C(C(=O)O)C(=O)O)CCOCCOCC1` [Example 13, N-dicarboxymethyl-N'-(1,1'-dicarboxypropyl)-1,4,10,13-tetraoxa-7,16-diazacyclooctadecane tetrasodium salt sodium bromide double salt], for which, in data set [1], the “radioactivity excreted from the animal organism within 1 day” value is recorded as 40%, the “radioactivity excreted from the animal organism within 4 days” value worked out at 65%, the “radioactivity excreted from the animal organism within 7 days” value is 67% and the EI value was determined as 13.30. The F factor in data set [1] is 2.1. This compound registered an LD50 at 720 h in data set [3] of 302 µmol/kg.
With `O=C([O-])C(C(=O)[O-])N1CCOCCOCCN(C(C(=O)[O-])C(=O)[O-])CCOCCOCC1.[Mg+2].[Na+].[Na+]` [Example 4, N,N'-bis(dicarboxymethyl)-1,4,10,13-tetraoxa-7,16-diazacyclooctadecane magnesium complex disodium salt], in data set [1], the EI value amounted to 7.30 and the F factor came to 2.3. Besides, the “Acute toxicity LD50/30” value in data set [2] is given as 0.211 mmol/kg.
With “N,N'-bis(dicarboxymethyl)-1,4,10,13-tetraoxa-7,16-diazacyclooctadecane calcium complex disodium salt containing disodium hydroxymalonate and sodium chloride [6/a]”, in data set [1], the EI value came out at 158.00 and the F factor worked out at 3.9. The “Acute toxicity LD50/30” value in data set [2] is “above 3.0 mmol/kg”.

For the origin of these results see US5440031A, “1,4,10,13-tetraoxa-7,16-diazacyclooctadecane derivatives, pharmaceutical compositions containing them and their use for the removal of toxic metal ions and radioactive isotopes from living organism” (priority 1990, dated 1995).
